According to patent US10351523B2, “UV-absorbing compounds with at least one reactive hydrogen” (ISP INVESTMENTS LLC, priority 2013, dated 2019):

Assay: Water solubility of the isolated powder (observation after work-up)
Assay type: physicochemical
Details: isolated lemon-yellow powder
Method: (§1) To a premixed solution of 6.0 g ethylene diamine in 30 ml ethanol was added 30.8 g of 5-benzoyl-4-hydroxy-2-methoxy benzenesulfonic acid and stirred well until a solution was formed. The mixture was heated to 130° C. for 16 hours and then cooled to 70° C. The ethanol residue was flashed off in a vacuum oven at 70° C.
as §1, with “11.6” for “6.0”, “hexamethylene” for “ethylene”, “40 g” for “30 ml”
An amount of 7.4 g propylene diamine, 30.8 g of 5-benzoyl-4-hydroxy-2-methoxy benzenesulfonic acid, and 30 ml of 1:1 ethanol-water mixture was stirred well until a clear solution was obtained. […] The ethanol residue was flashed off in a vacuum oven at 70° C.

Substance | solubility in water
2-hydroxy-4-methoxy-5-(N-3-aminopropyl)sulfonamido-4′-methylbenzophenone [Example 5] | insoluble in water
2-hydroxy-4-methoxy-5-(N-6-aminohexyl) sulfonamido-4′-methylbenzophenone [Example 4] | insoluble in water
